Experiments:
[1] = test system: Rabbit chondrocytes; test: Hyaluronic acid production in rabbit chondrocytes; type: cell-based; conditions: culture supernatant, per number of viable cells; 12 days culture; hydroxytyrosol 100 ng/ml, glucosamine hydrochloride 4 μg/ml
Procedure: The promoting effects of hydroxytyrosol and glucosamine hydrochloride on the production of glycosaminoglycan and on the production of hyaluronic acid in chondrocytes were evaluated. Rabbit chondrocytes (rabbit articular chondrocytes in primary culture, F-8, Cell Garage Co., Ltd.) were washed with phosphate buffered saline solution, and then cells were released with 0.05% trypsin-EDTA solution. The released chondrocytes were cultured in DMEM medium containing 10% FBS, 100 U/ml penicillin, 100 μg/ml streptomycin, 100 μM trisodium ascorbyl-2-phosphate (available from SIGMA-ALDRICH Corp.), and 25 mM HEPES (available from Invitrogen Corporation) at 37° C. in a humidified condition with 5% CO2. […] For each group after 12 days culture, the number of viable cells was determined by WST assay. The percentage of the amount of glycosaminoglycan or hyaluronic acid produced by each experimental group, relative to the control group, was calculated according to the following formula: ((amount produced by each experimental group/number of cells of each experimental group)×100)/(amount produced by the control group/number of cells of the control group). The supernatant of cultured cells of each group was collected, and the amount of hyaluronic acid produced was measured using a measurement kit (hyaluronic acid measurement kit, available from Seikagaku Corporation).

[2] = test system: Rabbit chondrocytes; test: Glycosaminoglycan production in rabbit chondrocytes; type: cell-based; conditions: per number of viable cells; 12 days culture; hydroxytyrosol 100 ng/ml, glucosamine hydrochloride 4 μg/ml
Procedure: The promoting effects of hydroxytyrosol and glucosamine hydrochloride on the production of glycosaminoglycan and on the production of hyaluronic acid in chondrocytes were evaluated. Rabbit chondrocytes (rabbit articular chondrocytes in primary culture, F-8, Cell Garage Co., Ltd.) were washed with phosphate buffered saline solution, and then cells were released with 0.05% trypsin-EDTA solution. The released chondrocytes were cultured in DMEM medium containing 10% FBS, 100 U/ml penicillin, 100 μg/ml streptomycin, 100 μM trisodium ascorbyl-2-phosphate (available from SIGMA-ALDRICH Corp.), and 25 mM HEPES (available from Invitrogen Corporation) at 37° C. in a humidified condition with 5% CO2. […] For each group after 12 days culture, the number of viable cells was determined by WST assay. The percentage of the amount of glycosaminoglycan or hyaluronic acid produced by each experimental group, relative to the control group, was calculated according to the following formula: ((amount produced by each experimental group/number of cells of each experimental group)×100)/(amount produced by the control group/number of cells of the control group). The amount of glycosaminoglycan produced by the above-mentioned cultured cells was measured using a measurement kit (acid mucopolysaccharide quantification kit, available from Cell Garage Co., Ltd.).

[3] = test system: proteoglycan; test: Image analysis of Safranin O staining (proteoglycan) of knee articular cartilage; type: in vivo, rabbit
Procedure: The rabbit articular cartilage injury model was prepared based on the method of Hashida et. al. (See, Macromolecular Bioscience, 3, (2003) 596-603), and Tamai et. al. (See, Carbohydrate Polymers, 48, (2002) 369-378, and Carbohydrate Polymers, 54, (2003) 251-262).
Initially, each animal was anesthetized by injecting pentobarbital sodium (40 mg/kg) intraperitoneally. Next, hairs at the knee joint of the left hind limb of the animal were clipped and disinfected with 0.5% chlorhexidine gluconate solution and 70% ethanol solution. Then, an incision was made on the skin on the lateral portion of the knee joint from the central part of the femur toward the tibial tuberosity. The articular capsule was exposed and incised. Further, the knee joint was exposed completely by dislocating the patella toward the medial side. Three holes of 2 mm size in diameter and 4 mm in depth were made by using a handdrill one at the medial trochlear ridge and two at the trochlear sulcus of the femur. The incised portion was washed with sterile saline solution and the articular capsule, and at the same time, the subcutaneous tissues and the skin were sutured with a synthetic absorbent thread and with nylon thread, respectively. During one week after the operation, the sutured portion of the skin was disinfected by povidone-iodine once a day and 10 mg/kg of oxytetracycline hydrochloride was subcutaneously administered twice a day.
After the formation of injury to articular cartilage, for the HT group, the product containing 20% by mass of hydroxytyrosol obtained in Production Example 1 was dissolved in tap water and administered using a water bottle at a rate of 500 mg/kg (100 mg/kg of hydroxytyrosol) per day for 21 days. After making sure that all of the water containing the drug was taken in, rabbits were fed with sterile tap water. The control was fed with sterile tap water ad libitum.
The specimens stained with Safranin O and with Alcian blue were prepared in the same way as mentioned above and subjected to image analysis. The 200 times magnified images of specimens were scanned into the computer using a digital camera (Olympus DP70, manufactured by Olympus Corporation). Then, two locations (20,000 pixels) were randomly sampled, and the density of the site stained in a specific color (site stained with Safranin O:
corresponding to proteoglycan, site stained with Alcian blue: corresponding to glycosaminoglycan) was measured. For the obtained values, Student's t-test was performed between the control group and the HT group.
In the same way as in Example 1, the cartilage regeneration-promoting effects were investigated with respect to hydroxytyrosol (100 mg/kg per day, HT group) and with respect to glucosamine hydrochloride (800 mg/kg per day, hereinafter, GAH group) for comparison. The control group was set in the same way as in Example 1.

[4] = Example 2, injured site of cartilage

Row | Structure (SMILES) | amount of hyaluronic acid produced compared to the control group [1] [%] | amount of glycosaminoglycan produced compared to the control group [2] [%] | density at the site stained with Safranin O (proteoglycan), injured site of cartilage, vs control [3, 4] | density at the site stained with Safranin O, normal site and growth zone of cartilage, vs control ([3]; Example 2) | density at the site stained with Safranin O, normal site and growth zone of cartilage, vs control ([3]; Example 1) | density at the site stained with Safranin O (proteoglycan), injured site of cartilage, vs control ([3]; Example 1, site of cartilage at which injury was created)
1 | Cl.N[C@H]1C(O)O[C@H](CO)[C@@H](O)[C@@H]1O (stereo partly shown) [GAH group, glucosamine hydrochloride, reference compound] | 127.4 | 147.0 | significant increase | no difference |  | 
2 | OCCc1ccc(O)c(O)c1 [HT group, 2-(3,4-Dihydroxyphenyl)ethanol] | 82.9 | 119.8 | significant increase | no difference | no difference | significant increase

— US20090325891A1, “Cartilage regeneration-promoting agent” (EISAI FOOD & CHEMICAL CO., LTD., priority 2006, published 2009)
